Among the test systems are UACC-257; MDA-N; PC-3; SK-MEL-28; CCRF-CEM; KM12; IGROV-1; HCT-116; Hs-578T; DU-145; SF-268; OVCAR-5; SK-MEL-5; 786-0; NCI/ADR-RES; MDA-MB-435; A498; LOX IMVI; K562; RPMI-8226.
Test in all cases: DTP human tumour cell line panel, 48 h

Each structure is given as a SMILES string. Where “and” joins values, the source holds several entries; their conditions need not be identical. Equal values may be shown once.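 Exposure lasted 48 hours, with cells grown in 96-well plates and compounds tested at five concentrations. GI50 = concentration required for 50% inhibition of growth.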 Calls of active or inactive are those of the source. Rule as the data show it: active = GI50 up to about 1.1 µM and inactive = higher.

Regarding `O=C(Nc1ccc(Cl)c(Cl)c1)C(=O)C(C1OC(=O)c2ccccc21)[N+](=O)[O-]` (stereo not drawn), the GI50 with UACC-257, in the assay with MDA-N, in the assay with PC-3, in the assay with SK-MEL-28, in the assay with CCRF-CEM and in the assay on KM12 was > 100 µM (inactive) throughout. The GI50 in the assay with IGROV-1, with HCT-116, with Hs-578T, in the assay on DU-145, in the assay on SF-268 and in the assay on OVCAR-5 was > 100 µM (inactive) throughout. For the same compound, the GI50 with SK-MEL-5, in the assay with 786-0, in the assay on NCI/ADR-RES, in the assay with MDA-MB-435, in the assay with A498 and in the assay on LOX IMVI was > 100 µM (inactive) throughout.
Consider `COc1cc(/C=C2\CCC(C)C3C2=NN(C(C)=O)C3c2cc(OC)c(OC)c(OC)c2)cc(OC)c1OC` (stereo not drawn), for which the GI50 in the assay with UACC-257 is > 59.8 µM (inactive); in the assay with MDA-N, > 100 µM (inactive); with PC-3, > 100 µM (inactive); in the assay on SK-MEL-28, 6.93 µM (inactive); in the assay on CCRF-CEM, > 100 µM (inactive); with KM12, > 33 µM (inactive). Moreover, the GI50 in the assay with IGROV-1 is 3.13 µM (inactive); in the assay with HCT-116 it was > 100 µM (inactive); in the assay with K562 it was > 100 µM (inactive); in the assay on Hs-578T it was 45.8 µM (inactive); in the assay with DU-145, > 100 µM (inactive); with SF-268, > 85.1 µM (inactive). Besides, the GI50 with OVCAR-5 is 10.2 µM (inactive); in the assay with SK-MEL-5, > 57 µM (inactive); in the assay with 786-0, > 79.6 µM (inactive); in the assay with MDA-MB-435 it was > 100 µM (inactive); with RPMI-8226 it was 36.7 µM (inactive); in the assay on A498, > 100 µM (inactive). Besides, the GI50 with LOX IMVI is > 100 µM (inactive).
For `C/C(=N\NC(=S)NC(C)C)c1nc2cccnc2[nH]1`, the GI50 in the assay with UACC-257 was 34.6 µM (inactive); in the assay with MDA-N, > 100 µM (inactive); with PC-3 it was 27.9 µM (inactive); in the assay with SK-MEL-28 it was > 100 µM (inactive); with CCRF-CEM it was 2.88 µM (inactive); in the assay on KM12, 65.8 µM (inactive). Also, the GI50 with IGROV-1 was 19.8 µM (inactive); in the assay with HCT-116, 11.3 µM (inactive); in the assay with K562, 4.48 µM (inactive); in the assay on Hs-578T, 23.9 µM (inactive); with DU-145 it was 51.1 µM (inactive); in the assay on SF-268, 14.8 µM (inactive). The GI50 in the assay with OVCAR-5 was 28.8 µM (inactive); in the assay on SK-MEL-5 it was 13.1 µM (inactive); with 786-0, 20.3 µM (inactive); in the assay on NCI/ADR-RES, 40.5 µM (inactive); with RPMI-8226, > 100 µM (inactive); in the assay on A498, > 47.6 µM (inactive). Also, the GI50 with LOX IMVI was 30.2 µM (inactive).
For the compound `CC(C)(C)OC(=O)NCC(CNC(=O)OC(C)(C)C)c1nc(C(N)=O)cs1`, the GI50 in the assay on UACC-257, with MDA-N, in the assay with PC-3, in the assay with SK-MEL-28, with CCRF-CEM and in the assay with KM12 was > 100 µM (inactive) each time. The GI50 in the assay on IGROV-1, with HCT-116, with K562, in the assay on Hs-578T, in the assay with OVCAR-5 and in the assay with SK-MEL-5 was > 100 µM (inactive) in each case. Besides, the GI50 with 786-0, with NCI/ADR-RES, in the assay with MDA-MB-435, with A498 and in the assay with LOX IMVI was > 100 µM (inactive) throughout.
For the compound `OC(c1cc2ccccc2[nH]1)C1(c2cccnc2)SCCCS1` (stereo not drawn), the GI50 with UACC-257 was 52 µM (inactive); in the assay on MDA-N it was 52.2 µM (inactive); in the assay with PC-3, 38.5 µM (inactive); in the assay with SK-MEL-28 it was > 100 µM (inactive); in the assay with KM12 it was 26.7 µM (inactive); with IGROV-1, 53.8 µM (inactive). For the same compound, the GI50 in the assay on HCT-116 was 59 µM (inactive); in the assay with K562 it was 27.2 µM (inactive); with Hs-578T, 41.3 µM (inactive); with DU-145, > 100 µM (inactive); with SF-268, 43.3 µM (inactive); in the assay on OVCAR-5, 24.1 µM (inactive). Also, the GI50 in the assay with SK-MEL-5 is 43.6 µM (inactive); with 786-0, 97.3 µM (inactive); in the assay with NCI/ADR-RES it was 53.3 µM (inactive); with MDA-MB-435, 33.6 µM (inactive); in the assay on A498, 17.9 µM (inactive); with LOX IMVI, 79.4 µM (inactive).
For the compound `COC(=O)[C@]12CCC(=O)N1[C@H](C(=O)O)Cc1c2[nH]c2ccccc12`, the GI50 in the assay with UACC-257, in the assay with MDA-N, in the assay on PC-3, with SK-MEL-28, in the assay on CCRF-CEM and in the assay with KM12 was > 100 µM (inactive) throughout. Besides, the GI50 with IGROV-1, in the assay with HCT-116, in the assay on K562, with Hs-578T, in the assay with DU-145 and with SF-268 was > 100 µM (inactive) throughout. In addition, the GI50 with OVCAR-5, in the assay with SK-MEL-5, in the assay with 786-0, in the assay with NCI/ADR-RES, with MDA-MB-435 and with A498 was > 100 µM (inactive) in each case. Moreover, the GI50 in the assay with LOX IMVI is > 100 µM (inactive).
`COc1cc(-c2oc(/C=N/c3ccccc3)c([N+](=O)[O-])c2-c2ccc(O)c(OC)c2)ccc1O`: the GI50 was 27 µM (inactive) with UACC-257; 31 µM (inactive) in the assay on MDA-N; 18.7 µM (inactive) in the assay with PC-3; 19.5 µM (inactive) with SK-MEL-28; 6.31 µM (inactive) with CCRF-CEM; 21.7 µM (inactive) in the assay on KM12. Also, the GI50 with IGROV-1 is 15.4 µM (inactive); in the assay on HCT-116, 18.4 µM (inactive); with K562, 36.1 µM (inactive); in the assay on Hs-578T, 39.6 µM (inactive); with DU-145 it was 20.1 µM (inactive); in the assay with SF-268, 19.7 µM (inactive). Besides, the GI50 with OVCAR-5 was 35.5 µM (inactive); in the assay with SK-MEL-5 it was 23.7 µM (inactive); with 786-0, 20.6 µM (inactive); with NCI/ADR-RES, 22.8 µM (inactive); with MDA-MB-435, 23.6 µM (inactive); in the assay with RPMI-8226, 25.1 µM (inactive). Also, the GI50 in the assay on LOX IMVI is 9.57 µM (inactive).
As for `CCC(=O)C(CCN1CCC(N2C(=O)C(CCC#N)c3ccccc32)CC1)(c1ccccc1)c1ccccc1` (stereo not drawn), the GI50 in the assay with UACC-257 was 13 µM (inactive); in the assay on PC-3, 18.5 µM (inactive); in the assay on SK-MEL-28, 18.7 µM (inactive); in the assay with KM12, 13.4 µM (inactive); in the assay with IGROV-1, 14.6 µM (inactive); in the assay on HCT-116, 4.9 µM (inactive). Also, the GI50 with K562 was 3.8 µM (inactive); in the assay with Hs-578T it was 9.57 µM (inactive); in the assay on DU-145 it was 12.2 µM (inactive); in the assay with SF-268 it was 16.1 µM (inactive); with OVCAR-5, 22.3 µM (inactive); in the assay on SK-MEL-5 it was 10.3 µM (inactive). For the same compound, the GI50 was 12.3 µM (inactive) in the assay with 786-0; 11.5 µM (inactive) in the assay with NCI/ADR-RES; 4.85 µM (inactive) in the assay with MDA-MB-435; 4.17 µM (inactive) with RPMI-8226; 23.2 µM (inactive) in the assay on A498; 12.8 µM (inactive) with LOX IMVI.
Turning to `CCNC(=S)N/N=C(\C)c1cccc(C)n1`, the GI50 with UACC-257 is 5.2 µM (inactive); in the assay on MDA-N, 28.2 µM (inactive); with PC-3 it was 5.87 µM (inactive); with SK-MEL-28, 22.3 µM (inactive); with CCRF-CEM it was 0.351 µM (active); in the assay with KM12, 20.3 µM (inactive). In addition, the GI50 in the assay on IGROV-1 is 4.36 µM (inactive); with HCT-116, 7.18 µM (inactive); in the assay with K562, 1.78 µM (inactive); with Hs-578T, > 100 µM (inactive); with DU-145, 14.9 µM (inactive); in the assay on SF-268, 2.4 µM (inactive). Moreover, the GI50 in the assay with OVCAR-5 was 9.31 µM (inactive); in the assay on SK-MEL-5, 4.52 µM (inactive); in the assay on 786-0, 12.8 µM (inactive); with NCI/ADR-RES, 8.45 µM (inactive); with MDA-MB-435 it was 20.5 µM (inactive); with A498, 13.5 µM (inactive). For the same compound, the GI50 in the assay with LOX IMVI was 18.6 µM (inactive).
Consider `Cc1ccc(C)c(COCCOCn2cc(Br)c(N)nc2=O)c1`, for which the GI50 in the assay on UACC-257, in the assay with MDA-N, in the assay with PC-3, with SK-MEL-28, in the assay on CCRF-CEM and in the assay with KM12 was > 100 µM (inactive) in each case. The GI50 in the assay on IGROV-1, in the assay on HCT-116, with K562, with Hs-578T, in the assay with DU-145 and in the assay with SF-268 was > 100 µM (inactive) in each case. Besides, the GI50 with OVCAR-5, in the assay with 786-0, in the assay on NCI/ADR-RES, in the assay with MDA-MB-435, in the assay with A498 and with LOX IMVI was > 100 µM (inactive) throughout.
In the case of `c1ccc2[nH]c(-c3cscn3)nc2c1` [THIABENDAZOLE], the GI50 was > 100 µM (inactive) with UACC-257; 50.4 µM (inactive) with MDA-N; > 100 µM (inactive) in the assay with PC-3; > 100 µM (inactive) with SK-MEL-28; > 100 µM (inactive) with CCRF-CEM; > 100 µM (inactive) in the assay on KM12. In addition, the GI50 is > 100 µM (inactive) in the assay with IGROV-1; > 100 µM (inactive) in the assay on HCT-116; > 100 µM (inactive) and 83.6 µM (inactive) in the assay with K562; > 100 µM (inactive) with Hs-578T; > 100 µM (inactive) in the assay on DU-145; > 100 µM (inactive) with SF-268. Besides, the GI50 was > 100 µM (inactive) in the assay on OVCAR-5; > 100 µM (inactive) in the assay with SK-MEL-5; > 100 µM (inactive) in the assay on 786-0; > 100 µM (inactive) in the assay on NCI/ADR-RES; 74.3 µM (inactive) and 44.4 µM (inactive) in the assay with MDA-MB-435; > 100 µM (inactive) in the assay with A498. The GI50 in the assay on LOX IMVI is > 100 µM (inactive).

These data come from ChEMBL document CHEMBL1201862, “PubChem BioAssay data set” (2004).
